Experimental findings from patent US7429582B2, “Dihydro[1,4]oxazino[2,3,4-hi]indazole derivatives as 5-hydroxytryptamine-6 ligands and use thereof in the treatment of attention deficit disorders” (Wyeth, priority 2006, dated 2008) are described below.

Each structure is given as a SMILES string. Structures can show the parent of a compound that is named as a salt.

In general, Ki refers to a dissociation constant, usually derived from enzyme kinetics or from competition with a known ligand.

T1 sequence (P50406 whole entry): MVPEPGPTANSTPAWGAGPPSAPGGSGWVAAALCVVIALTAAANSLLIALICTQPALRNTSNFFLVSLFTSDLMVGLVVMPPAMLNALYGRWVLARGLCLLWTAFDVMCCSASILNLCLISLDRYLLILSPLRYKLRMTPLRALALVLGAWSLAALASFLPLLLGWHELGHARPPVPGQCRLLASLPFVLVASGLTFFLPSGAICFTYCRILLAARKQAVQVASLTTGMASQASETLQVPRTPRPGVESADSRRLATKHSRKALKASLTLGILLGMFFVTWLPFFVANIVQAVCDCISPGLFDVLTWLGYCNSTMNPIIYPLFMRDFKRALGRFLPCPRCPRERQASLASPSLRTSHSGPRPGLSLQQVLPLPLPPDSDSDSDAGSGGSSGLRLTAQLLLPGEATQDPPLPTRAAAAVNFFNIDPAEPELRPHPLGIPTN

The assay addresses T1, human cloned 5-HT6 receptors (Homo sapiens, UniProt P50406).
T1 construct: expressed in transfected cells; host or cells: Hela cells
As to conditions: [3H]-LSD 3.0 nM, 120 minutes at room temperature, Hela cell membranes; read-out: 5-HT6 Binding Ki.
Protocol: This operation was repeated.
The reaction was allowed to proceed in the dark for 120 minutes at room temperature, at which time, the bound ligand-receptor complex was filtered off on a 96 well unifilter with a Packard Filtermate® 196 Harvester. The bound complex caught on the filter disk was allowed to air dry and the radioactivity is measured in a Packard TopCount® equipped with six photomultiplier detectors, after the addition of 40.0 μl Microscint®-20 scintillant to each shallow well. The unifilter plate was heat-sealed and counted in a PackardTopCount® with a tritium efficiency of 31.0%.
Binding in the presence of varying concentrations of test compound was expressed as a percentage of specific binding in the absence of test compound. The results were plotted as log % bound versus log concentration of test compound. […] A linear regression line of data points was plotted, from which the IC50 value is determined and the Ki value is determined based upon the following equation: Ki=IC50/(1+L/KD) where L was the concentration of the radioactive ligand used and KD is the dissociation constant of the ligand for the receptor, both expressed in nM.
Regarding `O=S(=O)(c1cccc2ccccc12)c1nn2c3c(cccc13)OC(CN1CCCCC1)C2` (stereo not drawn) [Example 8, 6-(1-Naphthylsulfonyl)-2-(piperidin-1-1ylmethyl)-2,3-dihydro[1,4]oxazino[2,3,4-hi]indazole Hydrochloride], the Ki turned out to be 160 nM.

For `CN(C)CC1Cn2nc(S(=O)(=O)c3cccc4ccccc34)c3cccc(c32)O1` (stereo not drawn) [Example 6, N,N-dimethyl-1-[6-(1-naphthylsulfonyl)-2,3-dihydro[1,4]oxazino[2,3,4-hi]indazol-2-yl]methanamine Hydrochloride], the Ki is 1.6 nM.

In the case of `O=S(=O)(c1cccc2ccccc12)c1nn2c3c(cccc13)OC(CN1CCCC1)C2` (stereo not drawn) [Example 7, 6-(1-Naphthylsulfonyl)-2-(Pyrrolidin-1-1ylmethyl)-2,3-dihydro[1,4]oxazino[2,3,4-hi]indazole Hydrochloride], the Ki is 3 nM.
